Experiments:
Type in all cases: in vivo
[1] = tested on: common ragweed (Ambrosia artemisiifolia L., AMBEL); assay: Post-emerge greenhouse herbicide test, phytotoxicity rating; details: 14 days after application, scale 0-100
Method in brief: (§1)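 Plants at the 2-3 leaf stage, sown 8-21 days earlier, were track-sprayed post-emergence with compound in acetone plus 0.25% v/v non-ionic surfactant at 63-1000 g ai/ha (187 l/ha). Damage was rated at 14 days on a 0-100 scale (0 none, 100 all plants dead), for both crop injury and weed control.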

[2] = tested on: ivyleaf morningglory (Ipomoea hederacea, IPOHE); assay: as above; details: 14 days after application, scale 0-100
Method in brief: as §1

[3] = tested on: velvetleaf (Abutilon theophrasti, ABUTH); assay: as above; details: 14 days after application, scale 0-100
Method in brief: as §1

[4] = tested on: barnyardgrass (Echinochloa crusgalli, ECHCG); assay: as above; details: 14 days after application, scale 0-100
Method in brief: as §1

[5] = tested on: lambsquarters (Chenopodium album, CHEAL); assay: as above; details: 14 days after application, scale 0-100
Method in brief: as §1

[6] = tested on: green foxtail (Setaria viridis, SETVI); assay: as above; details: 14 days after application, scale 0-100
Method in brief: as §1

[7] = tested on: sicklepod (Cassia obtusifolia, CASOB); assay: as above; details: 14 days after application, scale 0-100
Method in brief: as §1

[8] = tested on: large crabgrass (Digitaria sanguinalis, DIGSA); assay: as above; details: 14 days after application, scale 0-100
Method in brief: as §1

[9] = tested on: Johnsongrass (Sorghum halepense, SORHA); assay: as above; details: 14 days after application, scale 0-100
Method in brief: as §1

[10] = tested on: redroot pigweed (Amaranthus retroflexus, AMARE); assay: as above; details: 14 days after application, scale 0-100
Method in brief: as §1

[11] = tested on: soybean (Glycine max L., var. Pella 86, SOY); assay: Pre-emerge greenhouse test, crop damage rating; design: key to SOY crop damage rating: 0 = no damage, 100 = complete death of all plants; details: 14 days after application, rating scale 0-100
Method in brief: (§2)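 Seeds sown in sandy loam one day before track-sprayer application of acetone solutions at 125–1000 g ai/ha (187 l/ha), then surface-watered to incorporate and bottom-watered. Injury scored visually at 14 days on a 0–100 scale (0 no damage, 100 complete death).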

[12] = tested on: upland rice (Oryza sp., var.Tebonnet, RICE); assay: Post-emerge greenhouse test, crop damage rating; details: 14 days after application, scale 0-100
Method in brief: as §1

[13] = tested on: field corn (Zea mays L., var. Dekalb 535, CORN); assay: Post-emerge greenhouse test, crop damage rating; details: 14 days after application, scale 0-100
Method in brief: as §1

[14] = tested on: soybean (Glycine max L., var. Pella 86, SOY); assay: Post-emerge greenhouse test, crop damage rating; design: key to crop damage rating SOY: 0-100 scale: 0 = no damage, 100 = complete death of all plants; details: 14 days after application, scale 0-100
Method in brief: as §1

[15] = tested on: upland rice (Oryza sp., var.Tebonnet, RICE); assay: Pre-emerge greenhouse test, crop damage rating; details: 14 days after application, rating scale 0-100
Method in brief: as §2

[16] = tested on: field corn (Zea mays L., var. Dekalb 535, CORN); assay: Pre-emerge greenhouse test, crop damage rating; details: 14 days after application, rating scale 0-100
Method in brief: as §2

[17] = tested on: ivyleaf morningglory (Ipomoea hederacea, IPOHE); assay: Pre-emerge greenhouse herbicide test, phytotoxicity rating; details: 14 days after application, rating scale 0-100
Method in brief: as §2

[18] = tested on: velvetleaf (Abutilon theophrasti, ABUTH); assay: as above; details: 14 days after application, rating scale 0-100
Method in brief: as §2

[19] = tested on: barnyardgrass (Echinochloa crusgalli, ECHCG); assay: as above; details: 14 days after application, rating scale 0-100
Method in brief: as §2

[20] = tested on: lambsquarters (Chenopodium album, CHEAL); assay: as above; details: 14 days after application, rating scale 0-100
Method in brief: as §2

[21] = tested on: common ragweed (Ambrosia artemisiifolia L., AMBEL); assay: as above; details: 14 days after application, rating scale 0-100
Method in brief: as §2

[22] = tested on: green foxtail (Setaria viridis, SETVI); assay: as above; details: 14 days after application, rating scale 0-100
Method in brief: as §2

[23] = tested on: sicklepod (Cassia obtusifolia, CASOB); assay: as above; details: 14 days after application, rating scale 0-100
Method in brief: as §2

[24] = tested on: large crabgrass (Digitaria sanguinalis, DIGSA); assay: as above; details: 14 days after application, rating scale 0-100
Method in brief: as §2

[25] = tested on: Johnsongrass (Sorghum halepense, SORHA); assay: as above; details: 14 days after application, rating scale 0-100
Method in brief: as §2

[26] = tested on: redroot pigweed (Amaranthus retroflexus, AMARE); assay: as above; details: 14 days after application, rating scale 0-100
Method in brief: as §2

O=c1n(-c2cc(Oc3nccc(Cl)n3)c(Cl)cc2F)c(=S)n2n1CCCC2 [Compound 8-31]
phytotoxicity rating AMBEL ([1]; rate 63 g ai/ha): 50 | phytotoxicity rating AMBEL ([1]; rate 500 g ai/ha): 95 | phytotoxicity rating IPOHE ([2]; rate 63 g ai/ha): 80 | phytotoxicity rating IPOHE ([2]; rate 500 g ai/ha): 80 | phytotoxicity rating ABUTH ([3]; rate 63 g ai/ha): 70 | phytotoxicity rating ABUTH ([3]; rate 500 g ai/ha): 100 | phytotoxicity rating ECHCG ([4]; rate 63 g ai/ha): 0 | phytotoxicity rating ECHCG ([4]; rate 500 g ai/ha): 20 | phytotoxicity rating CHEAL ([5]; rate 63 g ai/ha): 90 | phytotoxicity rating CHEAL ([5]; rate 500 g ai/ha): 95 | phytotoxicity rating SETVI ([6]; rate 63 g ai/ha): 10 | phytotoxicity rating SETVI ([6]; rate 500 g ai/ha): 40 | phytotoxicity rating CASOB ([7]; rate 63 g ai/ha): 0 | phytotoxicity rating CASOB ([7]; rate 500 g ai/ha): 80 | phytotoxicity rating DIGSA ([8]; rate 63 g ai/ha): 0 | phytotoxicity rating DIGSA ([8]; rate 500 g ai/ha): 50 | phytotoxicity rating SORHA ([9]; rate 63 g ai/ha): 0 | phytotoxicity rating SORHA ([9]; rate 500 g ai/ha): 30 | phytotoxicity rating AMARE ([10]; rate 63 g ai/ha): 70 | phytotoxicity rating AMARE ([10]; rate 500 g ai/ha): 100 | SOY crop damage rating ([11]; Rate 125 g al/ha): 40 | SOY crop damage rating ([11]; Rate 500 g al/ha): 0 | crop damage rating RICE ([12]; rate 63 g ai/ha): 0 | crop damage rating RICE ([12]; rate 500 g ai/ha): 5 | crop damage rating CORN ([13]; rate 63 g ai/ha): 5 | crop damage rating CORN ([13]; rate 500 g ai/ha): 10 | crop damage rating SOY ([14]; rate 63 g ai/ha): 70 | crop damage rating SOY ([14]; rate 500 g ai/ha): 70 | RICE crop damage rating ([15]; Rate 125 g al/ha): 0 | RICE crop damage rating ([15]; Rate 500 g al/ha): 10 | CORN crop damage rating ([16]; Rate 125 g al/ha): 0 | CORN crop damage rating ([16]; Rate 500 g al/ha): 0 | IPOHE phytotoxicity rating ([17]; Rate 125 g al/ha): 0 | IPOHE phytotoxicity rating ([17]; Rate 500 g al/ha): 70 | ABUTH phytotoxicity rating ([18]; Rate 125 g al/ha): 100 | ABUTH phytotoxicity rating ([18]; Rate 500 g al/ha): 100 | ECHCG phytotoxicity rating ([19]; Rate 125 g al/ha): 0 | ECHCG phytotoxicity rating ([19]; Rate 500 g al/ha): 20 | CHEAL phytotoxicity rating ([20]; Rate 125 g al/ha): 90 | CHEAL phytotoxicity rating ([20]; Rate 500 g al/ha): 100 | AMBEL phytotoxicity rating ([21]; Rate 125 g al/ha): 30 | AMBEL phytotoxicity rating ([21]; Rate 500 g al/ha): 0 | SETVI phytotoxicity rating ([22]; Rate 125 g al/ha): 0 | SETVI phytotoxicity rating ([22]; Rate 500 g al/ha): 90 | CASOB phytotoxicity rating ([23]; Rate 125 g al/ha): 30 | CASOB phytotoxicity rating ([23]; Rate 500 g al/ha): 90 | DIGSA phytotoxicity rating ([24]; Rate 125 g al/ha): 0 | DIGSA phytotoxicity rating ([24]; Rate 500 g al/ha): 70 | SORHA phytotoxicity rating ([25]; Rate 125 g al/ha): 0 | SORHA phytotoxicity rating ([25]; Rate 500 g al/ha): 20 | AMARE phytotoxicity rating ([26]; Rate 125 g al/ha): 100 | AMARE phytotoxicity rating ([26]; Rate 500 g al/ha): 100
